Entries after “also recorded” stand apart in the source; their conditions may differ.
Columns and labels:
[1] = system: IRE1α-generated Xbp1s mRNA; experiment: Xbp1s mRNA in peritoneal leukocytes of ID8-Defb29/Vegfa-bearing mice; assay type: in vivo; conditions: MKC8866 300 mg/kg; leukocytes isolated 12 h later
Excerpt: (§1) FIGS. 19A, 19B, 19C, 19D, 19E, and 19F show Inhibition of IRE1α-XBP1 blunts tumor growth and activates effector T cell activity in tumors. […] Pictures denote the content of hemorrhagic ascites. […] FIGS. 19D, 19E, and 19F show the frequency of T cell populations in peritoneal tumors from ID8-Defb29/Vegfa-bearing mice treated with MKC8866 for two weeks. ***P<0.0001, **P<0.001 (Student's t-test). N=two repeats with a total of 8-10 mice per group.
(§2) We optimized a therapeutic scheme wherein female mice bearing orthotropic ID8-Defb29/Vegfa tumors for 7 days were treated daily for two weeks with vehicle or MKC8866, a novel small-molecule inhibitor that selectively blocks the RNase domain of IRE1α, impeding the generation of XBP1s.

[2] = system: FSHR+-ID8-Defb29/Vegfa ovarian tumors; experiment: ER stress-targeting therapy combined with FSH-CER T cells in ovarian tumor-bearing mice; assay type: in vivo; conditions: MKC8866 i.p. 300 mg/kg or AMG-44 i.p. 12 mg/kg daily for one week; FSH-CER T cells days 7 and 14
Protocol: The role of the PERK-Chop in the expansion of tumor TRM cells using conditional T cell Chop-null mice was evaluated. In agreement with the inhibitory effect of Chop in TRM development, higher frequency of TRM cells was detected in tumors from T cell-Chop^KO mice compared to controls (FIG. 23A). Next, we tested the effect of the inhibition of PERK (AMG-44) and IRE 1α (MKC8866) during the expansion of IL-2-supplemented human FSH-CER T cells. […] Also, we evaluated the therapeutic effect of the combination of ER stress-targeting therapy and FSH-CER. […]
Activation of the UPR in cancer cells mediates adaptation processes in the TME, whereas UPR priming in tumor-myeloid cells promotes their immunoregulatory activity. […] As main readouts of therapeutic efficacy, we will monitor tumor burden, overall survival, and tumor CER-T cell infiltration, persistence, and cytotoxic capacity (Exp. C.2.1.1). […] Additionally, we will sort DCs and MDSC from tumor sites and lymphoid organs to quantify the expression of ER stress gene markers, their ability to impair T cell proliferation and IFNγ production, and the levels of the UPR-related immunoinhibitory factors IL-6, PGE2, Cox-2, mPGES-1, and Arginase I. All required methods are established by our groups. […]

human FSH-CER T cells = experiment: Expansion of IL-2-supplemented human FSH-CER T cells with ER stress inhibitors; assay type: cell-based; conditions: treatment for 5 days
Protocol: The role of the PERK-Chop in the expansion of tumor TRM cells using conditional T cell Chop-null mice was evaluated. In agreement with the inhibitory effect of Chop in TRM development, higher frequency of TRM cells was detected in tumors from T cell-Chop^KO mice compared to controls (FIG. 23A). Next, we tested the effect of the inhibition of PERK (AMG-44) and IRE 1α (MKC8866) during the expansion of IL-2-supplemented human FSH-CER T cells. […] Also, we evaluated the therapeutic effect of the combination of ER stress-targeting therapy and FSH-CER. Thus, mice bearing FSHR+-ID8-Defb29/Vegfa ovarian tumors for 7 days received daily treatments with MKC8866 (i.p., 300 mg/kg) or AMG-44 (i.p. 12 mg/kg) for one-week, and i.p. transfer of FSH-CER T cells at days 7 and 14 post-tumor challenge. […] We postulate that treatments for longer time periods with ER stress inhibitors will further potentiate the effect of FSH-CER T cells

ID8-Defb29/Vegfa tumors = experiment: Orthotopic ID8-Defb29/Vegfa ovarian tumor model treated with MKC8866; assay type: in vivo, mice
Excerpt: as §1, §2

COc1cc2c(C)c(CC(=O)N3CCOCC3)c(=O)oc2c(C=O)c1O [MKC8866]
levels of IRE1α-generated Xbp1s mRNA in peritoneal leukocytes [1]: rapidly and significantly decreased | survival of hosts receiving FSH-CER T cells plus inhibitor [2]: Prolonged survival | frequency of FSH-CER TRM cells (human FSH-CER T cells): Higher frequency of FSH-CER TRM cells | PD-1 in intra-tumoral CD8+ T cells (ID8-Defb29/Vegfa tumors; MKC8866-treated mice vs vehicle): upregulation of PD-1; also recorded: substantial elevation of the immune checkpoint PD-1 | generation of hemorrhagic ascites (ID8-Defb29/Vegfa tumors; MKC8866 daily for two weeks vs vehicle): impaired generation of hemorrhagic ascites | malignant progression (ID8-Defb29/Vegfa tumors; MKC8866 daily for two weeks vs vehicle, weight gain): delayed malignant progression | capacity of intra-tumoral CD8+ T cells to produce IFNγ and TNFα in situ (ID8-Defb29/Vegfa tumors; MKC8866 for two weeks): augmenting their capacity to produce both IFNγ and TNFα in situ | proportion of proliferating (Ki67+) antigen-experienced (CD44+) CD8+ T cells infiltrating tumors (ID8-Defb29/Vegfa tumors; MKC8866 for two weeks): increased the proportion

From patent publication US20230107770A1, “METHOD OF ENHANCING IMMUNOTHERAPY USING ER STRESS PATHWAY INHIBITORS” (H. LEE MOFFITT CANCER CENTER AND RESEARCH INSTITUTE, INC., priority 2020, published 2023)
